Results published in PubChem BioAssay AID248 (DTP/NCI, 2004).
Values joined by “and” are separate entries in the source; they are usually repeats but may differ in a detail not shown here. Equal entries are not always repeated. Inconclusive results and toxic doses are left out. No stated cut-off is given here; in the data, active means T/C of 150% or more; inactive means T/C below 125%.

Test system: L1210 leukemia ip in BDF1 mice, survival T/C
Experiment: NCI In Vivo Anticancer Drug Screen. Data for tumor model L1210 Leukemia (intraperitoneal) in B6D2F1 (BDF1) mice
Settings: endpoint: mean survival time, higher = longer survival
Procedure, shortened: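 Value reflects the ratio of survival in compound-treated mice to survival in vehicle-treated controls, with both groups carrying the same transplanted tumor.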

[1] = dose: 100.0 mg/kg/injection, schedule: Q01DX009 (ip), vehicle: saline with Tween-80
[2] = dose: 200.0 mg/kg/injection, schedule: Q01DX009 (ip), vehicle: saline with Tween-80
[3] = dose: 100.0 mg/kg/injection, schedule: Q04DX003 (ip), vehicle: Klucel (hydroxypropylcellulose) (HPC)
[4] = dose: 200.0 mg/kg/injection, schedule: Q04DX003 (ip), vehicle: Klucel (hydroxypropylcellulose) (HPC)
[5] = dose: 400.0 mg/kg/injection, schedule: Q04DX003 (ip), vehicle: Klucel (hydroxypropylcellulose) (HPC)
[6] = dose: 100.0 mg/kg/injection, schedule: Q01DX009 (ip), vehicle: Klucel (hydroxypropylcellulose) (HPC)
[7] = dose: 200.0 mg/kg/injection, schedule: Q01DX009 (ip), vehicle: Klucel (hydroxypropylcellulose) (HPC)
[8] = dose: 100.0 mg/kg/injection, schedule: Q04DX002 (ip), vehicle: Klucel (hydroxypropylcellulose) (HPC)
[9] = dose: 200.0 mg/kg/injection, schedule: Q04DX002 (ip), vehicle: Klucel (hydroxypropylcellulose) (HPC)
[10] = dose: 400.0 mg/kg/injection, schedule: Q04DX002 (ip), vehicle: Klucel (hydroxypropylcellulose) (HPC)
[11] = dose: 400.0 mg/kg/injection, schedule: Q01DX009 (ip), vehicle: Klucel (hydroxypropylcellulose) (HPC)

Measured: T/C

COC(=O)/C=C/CBr
inactive: dose: 0.2 mg/kg/injection, schedule: Q01DX015 (ip), vehicle: carboxymethylcellulose (CMC) 91 % of control | dose: 4.0 mg/kg/injection, schedule: Q01DX015 (ip), vehicle: carboxymethylcellulose (CMC) 109 % of control | dose: 5.0 mg/kg/injection, schedule: Q01DX001 (ip), vehicle: carboxymethylcellulose (CMC) 95 % of control | dose: 8.0 mg/kg/injection, schedule: Q01DX015 (ip), vehicle: carboxymethylcellulose (CMC) 91 % of control | dose: 10.0 mg/kg/injection, schedule: Q01DX001 (ip), vehicle: carboxymethylcellulose (CMC) 93 % of control | dose: 16.0 mg/kg/injection, schedule: Q01DX015 (ip), vehicle: carboxymethylcellulose (CMC) 100 % of control and 102 % of control | dose: 32.0 mg/kg/injection, schedule: Q01DX015 (ip), vehicle: carboxymethylcellulose (CMC) 100 % of control

Cc1ccc(S(=O)(=O)N/N=C/c2ccc(O)cc2)cc1
inactive: dose: 87.5 mg/kg/injection, schedule: Q04DX003 (ip), vehicle: Klucel (hydroxypropylcellulose) (HPC) 97 % of control | dose: 175.0 mg/kg/injection, schedule: Q04DX003 (ip), vehicle: Klucel (hydroxypropylcellulose) (HPC) 105 % of control | dose: 350.0 mg/kg/injection, schedule: Q04DX003 (ip), vehicle: Klucel (hydroxypropylcellulose) (HPC) 103 % of control

Cc1c(Cl)cccc1NC(=O)NC(=O)c1ccccc1
inactive: dose: 50.0 mg/kg/injection, schedule: Q01DX009 (ip), vehicle: saline with Tween-80 101 % of control | [1] 108 % of control | [2] 97 % of control

COc1ccc(N=Cc2c(O)ccc3ccccc23)cc1
inactive: [3] 107 % of control | [4] 98 % of control | [5] 102 % of control

COc1ccc(S(=O)(=O)NC(=O)NC(=O)C=C(C)C)cc1
inactive: dose: 50.0 mg/kg/injection, schedule: Q01DX009 (ip), vehicle: Klucel (hydroxypropylcellulose) (HPC) 98 % of control | [6] 104 % of control | [3] 102 % of control | [7] 96 % of control | [4] 98 % of control | [5] 101 % of control

O=C1c2ccccc2C(=O)c2c3c(cc(NCCNCCO)c21)N(CCO)CCN3
inactive: dose: 25.0 mg/kg/injection, schedule: Q01DX009 (ip), vehicle: DMSO 119 % of control | dose: 50.0 mg/kg/injection, schedule: Q01DX009 (ip), vehicle: DMSO 121 % of control | dose: 200.0 mg/kg/injection, schedule: Q01DX009 (ip), vehicle: DMSO 122 % of control

CC(c1ccccc1)n1cncc1C(=O)N1CCOCC1 (stereo not drawn)
inactive: [8] 104 % of control | [9] 97 % of control | [10] 123 % of control

CC(=O)Nc1ccc(S(=O)(=O)NC2(c3ccccc3)C(=O)N(C)C(=O)N(C)C2=O)cc1
inactive: dose: 100.0 mg/kg/injection, schedule: Q01DX001 (ip), vehicle: saline 91 % of control | dose: 200.0 mg/kg/injection, schedule: Q01DX001 (ip), vehicle: saline 94 % of control | dose: 400.0 mg/kg/injection, schedule: Q01DX001 (ip), vehicle: saline 103 % of control

CCCCCCCCCCCC(=O)O
inactive: [1] 92 % of control | [2] 106 % of control | dose: 400.0 mg/kg/injection, schedule: Q01DX009 (ip), vehicle: saline with Tween-80 96 % of control

C[N+]1(C2CC3CCC2C3=O)CCOCC1 (stereo not drawn)
inactive: dose: 75.0 mg/kg/injection, schedule: Q01DX001 (ip), vehicle: saline 97 % of control | dose: 150.0 mg/kg/injection, schedule: Q01DX001 (ip), vehicle: saline 98 % of control

c1cncc(C2SCCCS2)c1
inactive: dose: 100.0 mg/kg/injection, schedule: Q04DX002 (ip), vehicle: DMSO 87 % of control | dose: 200.0 mg/kg/injection, schedule: Q04DX002 (ip), vehicle: DMSO 87 % of control

CCCC(O)(CCC)CC(=O)OCC
inactive: dose: 200.0 mg/kg/injection, schedule: Q04DX003 (ip), vehicle: saline sonified 106 % of control | dose: 400.0 mg/kg/injection, schedule: Q04DX003 (ip), vehicle: saline sonified 90 % of control

COP(=O)(OC)C1CC2CCC1C2 (stereo not drawn)
inactive: dose: 100.0 mg/kg/injection, schedule: Q04DX003 (ip), vehicle: acetone 102 % of control | dose: 200.0 mg/kg/injection, schedule: Q04DX003 (ip), vehicle: acetone 102 % of control | dose: 400.0 mg/kg/injection, schedule: Q04DX003 (ip), vehicle: acetone 100 % of control

CCCCOC(=O)CNC(=O)c1ccc([N+](=O)[O-])s1
inactive: dose: 50.0 mg/kg/injection, schedule: Q01DX005 (ip), vehicle: saline 102 % of control | dose: 100.0 mg/kg/injection, schedule: Q01DX005 (ip), vehicle: saline 98 % of control | dose: 400.0 mg/kg/injection, schedule: Q01DX005 (ip), vehicle: saline 91 % of control

O=C1C=CC(=O)c2c1ccc1ccccc21
inactive: dose: 12.5 mg/kg/injection, schedule: Q04DX003 (ip), vehicle: saline 102 % of control | dose: 25.0 mg/kg/injection, schedule: Q04DX003 (ip), vehicle: saline 96 % of control | dose: 50.0 mg/kg/injection, schedule: Q04DX003 (ip), vehicle: saline 101 % of control

COC1c2c(nc3ccccc3c2C#N)-c2ccccc2C1(C)C (stereo not drawn)
inactive: [3] 106 % of control | [4] 95 % of control | [5] 104 % of control

O=C(O)C(Nc1ccc(Nc2ccccc2)cc1)c1ccccc1 (stereo not drawn)
inactive: [8] 100 % of control | [9] 103 % of control | [10] 114 % of control

CC1CN(Cc2ccccc2)CC(C)N1 (stereo not drawn)
inactive: dose: 25.0 mg/kg/injection, schedule: Q01DX009 (ip), vehicle: water 95 % of control | dose: 50.0 mg/kg/injection, schedule: Q01DX009 (ip), vehicle: water 95 % of control | dose: 100.0 mg/kg/injection, schedule: Q01DX009 (ip), vehicle: water 104 % of control | dose: 100.0 mg/kg/injection, schedule: Q04DX003 (ip), vehicle: water 110 % of control | dose: 200.0 mg/kg/injection, schedule: Q04DX003 (ip), vehicle: water 115 % of control

Cc1ccc(S(=O)(=O)N/N=C2/CC3CCC(C)(C2)C3)cc1 (stereo not drawn)
inactive: dose: 12.5 mg/kg/injection, schedule: Q04DX003 (ip), vehicle: saline with Tween-80 100 % of control | dose: 25.0 mg/kg/injection, schedule: Q04DX003 (ip), vehicle: saline with Tween-80 98 % of control | dose: 50.0 mg/kg/injection, schedule: Q04DX003 (ip), vehicle: saline with Tween-80 93 % of control

CC(C)C(O)c1c[nH]c(=O)[nH]c1=O (stereo not drawn)
inactive: [6] 91 % of control | [7] 105 % of control | [11] 96 % of control

CN(C)NCC(O)COc1ccc(Cl)cc1 (stereo not drawn)
inactive: [8] 103 % of control | [9] 100 % of control

CC(C)(C)NC(=O)C(Cl)Cl
inactive: dose: 100.0 mg/kg/injection, schedule: Q01DX001 (ip), vehicle: saline with Tween-80 88 % of control | dose: 200.0 mg/kg/injection, schedule: Q01DX001 (ip), vehicle: saline with Tween-80 98 % of control

CCCCCCCCCCCCCCCCC(O)CO (stereo not drawn)
inactive: [6] 96 % of control | [7] 102 % of control | [11] 96 % of control

CN(C)C(=O)Nc1nc2ccccc2s1
inactive: dose: 100.0 mg/kg/injection, schedule: Q04DX002 (ip), vehicle: other 88 % of control and 92 % of control | dose: 100.0 mg/kg/injection, schedule: Q04DX003 (ip), vehicle: other 96 % of control and 120 % of control | dose: 200.0 mg/kg/injection, schedule: Q04DX002 (ip), vehicle: other 97 % of control and 100 % of control | dose: 200.0 mg/kg/injection, schedule: Q04DX003 (ip), vehicle: other 99 % of control and 105 % of control | dose: 400.0 mg/kg/injection, schedule: Q04DX002 (ip), vehicle: other 95 % of control and 103 % of control
